Where a SMILES comes first, the peptide text is derived from it. Bridges are numbered along the chain shown (N, C = ends). [ ]: non-standard residue; d: D form. The star is where a group is joined. Biotin = O=C1N[C@H]2[C@H](CS[C@H]2CCCCC(=O)*)N1; Dap = NC[C@H](N)C(=O)O

Data on eleven compounds can be found in ChEMBL document CHEMBL4402540, “Structure-Activity Relationship Studies of Small Molecule Modulators of the Staphylococcal Accessory Gene Regulator” (J Med Chem, 2020).

Assay [1] is described as follows: Inhibition of AgrC-1 in Staphylococcus aureus.
Assay [2] in a line: Inhibition of AgrC-2 in Staphylococcus aureus.
Assay [3] is described as follows: Inhibition of AgrC-4 in Staphylococcus aureus.
Assay [4] is described as follows: Inhibition of AgrC-3 in Staphylococcus aureus.
A short description of assay [5]: Inhibition of AgrC-2 in Staphylococcus aureus RN9372 incubated for 60 to 90 mins in presence of AIP agonist by beta-lactamase reporter gene assay.
Assay [6] can be described thus: Inhibition of AgrC-1 Staphylococcus epidermidis AH3408 incubated for 24 hrs by fluorescence assay.
Assay [7] addresses T1, Receptor-histidine kinase AgrC (Staphylococcus aureus, UniProt O07911).
T1 sequence (O07911 whole entry): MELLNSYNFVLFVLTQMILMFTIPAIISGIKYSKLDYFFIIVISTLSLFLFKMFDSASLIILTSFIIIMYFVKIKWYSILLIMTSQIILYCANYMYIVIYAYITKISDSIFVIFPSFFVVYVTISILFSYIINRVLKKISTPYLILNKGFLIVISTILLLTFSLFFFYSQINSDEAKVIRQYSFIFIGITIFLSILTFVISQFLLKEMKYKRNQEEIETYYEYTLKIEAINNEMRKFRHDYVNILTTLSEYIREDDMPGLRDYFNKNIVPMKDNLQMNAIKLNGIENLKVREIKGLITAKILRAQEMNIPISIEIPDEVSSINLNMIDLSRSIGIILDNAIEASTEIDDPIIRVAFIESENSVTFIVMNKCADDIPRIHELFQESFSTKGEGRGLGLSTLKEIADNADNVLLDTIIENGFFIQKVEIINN
Nature of the assay: Inhibition of AgrC in mid-exponential phase Staphylococcus aureus RN6390B assessed as beta-lactamase activity incubated for 80 mins by spectrophotometric method.

The term IC50 denotes the concentration that gives 50% inhibition. Turning to `CC[C@H](C)[C@H]1NC(=O)[C@@H](Cc2ccccc2)NC(=O)[C@@H](C)NC(=O)[C@H](NC(C)=O)CSC(=O)[C@@H](CCSC)NC1=O`, the IC50 in assay [1] is 5 nM; in assay [2], 5 nM; in assay [3] it was 5 nM; in assay [4], 0.1 nM.
With `CC[C@H](C)[C@H]1NC(=O)[C@@H](Cc2ccccc2)NC(=O)[C@@H](C)NC(=O)[C@H](NC(=O)[C@H](NC(=O)[C@@H](CO)NC(=O)[C@H](N)Cc2ccc(O)cc2)[C@@H](C)O)CSC(=O)[C@@H](CCSC)NC1=O`, the IC50 was 5 to 303 nM in assay [1], 8 to 18 nM in assay [2], 3 nM in assay [3] and 0.3 nM in assay [4].
On to `CC[C@@H](C)[C@H](N)C(=O)N[C@H](CC(N)=O)C(=O)N(C)[C@@H]1CSC(=O)[C@@H](CC(C)C)N(C)C(=O)[C@@H](CC(C)C)NC(=O)CN(Cc2ccccc2)C(=O)[C@@H](CC(=O)O)NC1=O`, for which the concentration for half-maximal inhibition (IC50) in assay [1] was determined as 4.49 nM; in assay [2], 1.95 nM; in assay [3], 6.59 nM.
The corresponding values for `CC[C@@H](C)[C@H](N)C(=O)N[C@H](CC(N)=O)C(=O)N(C)[C@@H]1CSC(=O)[C@@H](CC(C)C)N(C)C(=O)[C@@H](CC(C)C)NC(=O)[C@@H](Cc2ccccc2)NC(=O)[C@@H](CC(=O)O)NC1=O` are 137 nM, 134 nM and 106 nM.
As to `CC[C@H](C)[C@@H]1NC(=O)[C@H](Cc2ccccc2)NC(=O)[C@H](CC(=O)O)NC(=O)[C@@H](NC(=O)[C@@H](NC(=O)[C@H](CO)NC(=O)[C@H](Cc2ccc(O)cc2)NC(=O)CCCC[C@@H]2SC[C@@H]3NC(=O)N[C@@H]32)[C@@H](C)O)CSC(=O)[C@H](CCSC)NC1=O` (Biotin-YSTCDFIM; thioester 4-C), in assay [5], the concentration for half-maximal inhibition (IC50) amounted to 40 nM.
`C[C@H](N)C(=O)N[C@@H](CO)C(=O)N[C@@H](C)C(=O)N[C@H]1CSC(=O)[C@H](Cc2ccccc2)NC(=O)[C@H](Cc2ccc(O)cc2)NC(=O)[C@H](C)NC(=O)[C@H](C)NC1=O` (H-ASACAAYF; thioester 4-C) displayed an IC50 in assay [6] of 2.84 nM.
On the same count and under the same terms, then `C[C@H](N)C(=O)N[C@@H](CO)C(=O)N[C@@H](C)C(=O)N[C@H]1CSC(=O)[C@H](Cc2ccccc2)NC(=O)[C@H](Cc2ccc(O)cc2)NC(=O)[C@H](C)NC(=O)[C@H](CO)NC1=O` (H-ASACSAYF; thioester 4-C), with 2.08 nM.
For `CC(C)C[C@@H]1NC(=O)[C@H](CO)NC(=O)[C@H](CO)NC(=O)[C@@H](NC(=O)[C@H](C)NC(=O)[C@H](CC(N)=O)NC(=O)[C@@H](NC(=O)CN)C(C)C)COC(=O)[C@H](Cc2ccccc2)NC1=O` (H-GVNASSSLF; ester 5-C), in assay [7], the IC50 was 7.9 nM.
On the same count and under the same terms, then `CC(C)C[C@@H]1NC(=O)[C@H](CO)NC(=O)[C@H](CO)NC(=O)[C@@H](NC(=O)[C@H](C)NC(=O)[C@H](CC(N)=O)NC(=O)[C@@H](NC(=O)CN)C(C)C)CNC(=O)[C@H](Cc2ccccc2)NC1=O` (H-GVNA[Dap]SSLF; lactam 5-C), with below 1 nM.
Compound `CC(C)C[C@@H]1NC(=O)[C@H](Cc2ccc(O)cc2)NC(=O)[C@H](CO)NC(=O)[C@H](C)NC(=O)[C@@H](NC(=O)[C@@H]2CCCN2C(=O)[C@H](CC(N)=O)NC(=O)[C@H](Cc2ccc(O)cc2)NC(=O)[C@H](CCCCN)NC(=O)[C@H](C)NC(=O)[C@H](C)NC(=O)[C@@H](N)CC(N)=O)CSC1=O` (H-NAAKYNPCASYL; thioester 8-C) gave an IC50 in assay [6] of 34.3 nM.
`CC(C)C[C@@H]1NC(=O)[C@H](Cc2ccc(O)cc2)NC(=O)[C@H](CC(N)=O)NC(=O)[C@H](CO)NC(=O)[C@@H](NC(=O)[C@@H]2CCCN2C(=O)[C@H](CC(N)=O)NC(=O)[C@H](Cc2ccc(O)cc2)NC(=O)[C@H](CCCCN)NC(=O)[C@H](CO)NC(=O)[C@H](C)NC(=O)[C@@H](N)CC(N)=O)CSC1=O` (H-NASKYNPCSNYL; thioester 8-C): the half-maximal inhibitory concentration (IC50) in assay [6] amounted to 9.64 nM.
